Measured values as given in patent publication US20030220521A1, “Renal-selective prodrugs for control of renal sympathetic nerve activity in the treatment of hypertension” (G.D. Searle & Co., priority 1989, published 2003).
Where two headings read alike, the source gives them in different places.

Columns and labels:
[1] = Assay IV: metabolism of conjugate to fusaric acid in rat kidney homogenate; type: in vitro ADME
Method: A freshly excised rat kidney was homogenized in 10 ml cold buffer (100 mM Tris, 15 mM glycylglycine, pH 7.4) with a Polytron Tissue Homogenizer (Brinkmann). The resulting suspension, diluted with buffer, was incubated in the presence of the Ex. #859 conjugate at 37° C. At various times aliquots were removed, deproteinized with an equal volume of cold trichloroacetic acid (25%) and centrifuged. The supernatant was injected onto a C-18 reverse-phase HPLC column and eluted isocratically with a mixture of acetonitrile and water (20:80 v/v) containing trifluoroacetic acid (0.05%). Eluted compounds were monitored by absorbance at 254 nm and compared to standards run under identical conditions. In the assay using pure kidney enzyme homogenate, the Ex. #859 conjugate was also incubated under the same conditions as described except that 5 mg of gamma-glutamyl transpeptidase (Sigma, 23 units/mg) and 10 mg of acylase I (Sigma, 4800 units/mg) were added in place of the homogenate. Analysis by HPLC was performed in a manner identical to that used for the kidney homogenate experiment.

[2] = target: T1, dopamine beta-hydroxylase (DBH; EC 1.14.17.1) (Bos taurus, UniProt P15101); assay: Assay V: in vitro DBH inhibition (norepinephrine production, HPLC); type: biochemical, bovine; settings: for inhibition at 20 µM: read-out: % Inhibition of DBH; for inhibitory effect on dopamine-β-hydroxylase activity: tested at 20 uM
T1 construct: DBH, purified from bovine adrenals (Sigma); purchased Sigma; host or cells: bovine adrenals (tissue-purified)
T1 sequence (P15101 1-610): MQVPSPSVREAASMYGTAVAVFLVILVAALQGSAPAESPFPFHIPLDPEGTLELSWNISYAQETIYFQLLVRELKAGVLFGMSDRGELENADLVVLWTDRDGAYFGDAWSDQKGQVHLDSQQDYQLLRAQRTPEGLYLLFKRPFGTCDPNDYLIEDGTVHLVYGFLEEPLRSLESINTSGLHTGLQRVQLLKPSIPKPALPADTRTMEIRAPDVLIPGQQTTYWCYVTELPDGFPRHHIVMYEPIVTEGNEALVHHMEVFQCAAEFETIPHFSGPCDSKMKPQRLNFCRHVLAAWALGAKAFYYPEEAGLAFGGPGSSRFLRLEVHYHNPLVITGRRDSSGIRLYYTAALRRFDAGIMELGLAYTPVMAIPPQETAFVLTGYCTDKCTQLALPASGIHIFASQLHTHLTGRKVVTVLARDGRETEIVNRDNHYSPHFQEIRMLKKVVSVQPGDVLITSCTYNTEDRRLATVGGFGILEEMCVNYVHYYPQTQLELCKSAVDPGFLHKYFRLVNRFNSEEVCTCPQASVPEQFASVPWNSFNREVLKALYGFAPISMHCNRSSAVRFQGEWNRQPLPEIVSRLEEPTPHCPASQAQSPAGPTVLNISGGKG
Method: In order to characterize the relative potency of the Ex. #859 conjugate and its various potential metabolites as inhibitors of dopamine beta-hydroxylase (DBH; EC 1.14.17.1), the enzyme activity was determined in vitro in the presence of these compounds. DBH, purified from bovine adrenals (Sigma) was incubated at 37° C. in buffer containing 20 mM dopamine as substrate. The reaction was stopped by addition of 0.5 M perchloric acid. The precipitate was removed and the product of the enzyme activity (norepinephrine), contained in the clear supernatant, was analyzed by HPLC. The chromatographic separation used a reversed phase C-18 column run isocratically with 0.2 M ammonium acetate (pH 5.2) as the mobile phase. The amount of norepinephrine produced by the enzyme-substrate mixture was analyzed by measuring the peak intensity (absorbance) at 280 nm for norepinephrine as it was eluted at 4.5 minutes, using a photo-diode array detector. The result of adding either fusaric acid or the Ex. #859 conjugate to the incubate at various concentrations is shown in Table XXIII and FIG. 6. […] Fusaric acid and Ex. #859 and two more possible metabolites (Ex #858 and fusaric acid hydrazide) were tested at 20 uM.

SHR = assay: Assay VIII: chronic 5 day i.v. infusion, mean arterial pressure in SHR; type: in vivo, rat; settings: for chronic effect on mean arterial pressure compared to vehicle: SHR, 5 day infusion, Ex. #859 5 mg/hr, fusaric acid 2.5 mg/hr
Method: The Ex. #859 conjugate and saline vehicle were infused continuously for 5 days in SHR. Mean arterial pressure was measured (Gould Chart Recorder, model 3800; Statham P23Db pressure transducer) via an indwelling femoral artery catheter between 10:00 a.m. and 2:00 p.m. each day. The Ex. #859 conjugate (5 mg/hr), fusaric acid (2.5 mg/hr), and saline (100 μ1/hr) were infused via a jugular vein catheter with a Harvard infusion pump.

anesthetized dog = assay: Assay XI: intrarenal administration of fusaric acid in anesthetized dogs (MAP, RBF, UNaV); type: in vivo
[3] = Dog #1, intrarenal infusion 1.25 mg/kg/min
[4] = Dog #2, intrarenal infusion 0.75 mg/kg/min
[5] = anesthetized dog, bolus intrarenal 0.5, 1.0 and 5.0 mg/kg

CCCCc1ccc(C(=O)NNC(=O)CCC(NC(C)=O)C(=O)O)nc1 [Ex. #859, N-acetyl-L-glutamic acid, 5-[(5-butyl-2-pyridinyl)-carbonyl]hydrazide]
amount of fusaric acid liberated on incubation ([1]; kidney homogenate, 37° C): linear increase
other metabolites observed (fusaric acid hydrazide, gamma-glutamyl fusaric acid hydrazide) ([1]; kidney homogenate, 37° C): No fusaric acid hydrazide or gamma-glutamyl fusaric acid hydrazide was observed
Norepinephrine Peak Intensity (Abs 280) in the presence of compound ([2]; compound 0.10 μM): 0.51 Abs 280
Norepinephrine Peak Intensity (Abs 280) in the presence of compound ([2]; compound 1.00 μM): 0.52 Abs 280
Norepinephrine Peak Intensity (Abs 280) in the presence of compound ([2]; compound 10.00 μM): 0.61 Abs 280
Norepinephrine Peak Intensity (Abs 280) in the presence of compound ([2]; compound 100.00 μM): 0.53 Abs 280
DBH inhibitory activity ([2]; concentrations up to 100 uM): no appreciable activity
inhibition at 20 µM ([2]; test compound 20 μM): 1.5%
inhibitory effect on dopamine-β-hydroxylase activity [2]: Only fusaric acid had significant inhibitory effects
melting point: 191.5 to 192 °C
MAP (SE) (SHR; 5 mg/hr i.v. infusion, day 1): 122 ± 9 mm Hg
MAP (SE) (SHR; 5 mg/hr i.v. infusion, day 2): 115 ± 9 mm Hg
MAP (SE) (SHR; 5 mg/hr i.v. infusion, day 3): 119 ± 11 mm Hg
MAP (SE) (SHR; 5 mg/hr i.v. infusion, day 4): 121 ± 7 mm Hg
MAP (SE) (SHR; 5 mg/hr i.v. infusion, day 5): 115 ± 8 mm Hg
MAP (SE) (SHR; 5 mg/hr i.v. infusion, day zero): 146 ± 5 mm Hg
chronic effect on mean arterial pressure compared to vehicle (SHR): lowered mean arterial pressure similarly

CCCCc1ccc(C(=O)O)nc1 [Fusaric Acid, 5-n-butylpicolinic acid]
stability of liberated fusaric acid ([1]; kidney homogenate incubation conditions): remains stable
concentration above which the enzyme is inhibited ([2]; 20 mM dopamine as substrate, 37° C): > 1 µM
Norepinephrine Peak Intensity (Abs 280) in the presence of compound ([2]; compound 0.01 μM): 0.59 Abs 280
Norepinephrine Peak Intensity (Abs 280) in the presence of compound ([2]; compound 0.10 μM): 0.59 Abs 280
Norepinephrine Peak Intensity (Abs 280) in the presence of compound ([2]; compound 0.50 μM): 0.60 Abs 280
Norepinephrine Peak Intensity (Abs 280) in the presence of compound ([2]; compound 1.00 μM): 0.53 Abs 280
Norepinephrine Peak Intensity (Abs 280) in the presence of compound ([2]; compound 5.00 μM): 0.25 Abs 280
Norepinephrine Peak Intensity (Abs 280) in the presence of compound ([2]; compound 10.00 μM): 0.14 Abs 280
Norepinephrine Peak Intensity (Abs 280) in the presence of compound ([2]; compound 50.00 μM): 0.00 Abs 280
Norepinephrine Peak Intensity (Abs 280) in the presence of compound ([2]; compound 100.00 μM): 0.00 Abs 280
inhibition at 20 µM [2]: 75.4%
inhibitory effect on dopamine-β-hydroxylase activity [2]: significant inhibitory effects
MAP (anesthetized dog; [3]): 136 mm Hg
UNa V (anesthetized dog; [3]): 82 μEqlmin
Δ RBF (anesthetized dog; [3]): 240 mL/min
MAP (anesthetized dog; [4]): 148 mm Hg
UNa V (anesthetized dog; [4]): 13 μEqlmin
Δ RBF (anesthetized dog; [4]): 315 mL/min
effect on mean arterial pressure (anesthetized dog; [5]): no significant effect
effect on renal blood flow (anesthetized dog; [5]): dose-related increases
effect on urinary sodium excretion (anesthetized dog; [5]): no significant effect
effect on MAP, RBF and UNaV (anesthetized dog; anesthetized dog, bolus intrarenal injection 0.1 mg/kg): no effect on any measure
MAP (anesthetized dog; intrarenal bolus 0.1 mg/kg): 136 mm Hg
UNa V (anesthetized dog; intrarenal bolus 0.1 mg/kg): 21.2 μEq/min
Δ RBF (anesthetized dog; intrarenal bolus 0.1 mg/kg): 0 mL/min
MAP (anesthetized dog; intrarenal bolus 0.5 mg/kg): 136 mm Hg
UNa V (anesthetized dog; intrarenal bolus 0.5 mg/kg): 23.8 μEq/min
Δ RBF (anesthetized dog; intrarenal bolus 0.5 mg/kg): +46 ml/min
MAP (anesthetized dog; intrarenal bolus 1.0 mg/kg): 138 mm Hg
UNa V (anesthetized dog; intrarenal bolus 1.0 mg/kg): 21.1 μEq/min
Δ RBF (anesthetized dog; intrarenal bolus 1.0 mg/kg): +58 ml/min
MAP (anesthetized dog; intrarenal bolus 5.0 mg/kg): 140 mm Hg
UNa V (anesthetized dog; intrarenal bolus 5.0 mg/kg): 34.8 μEq/min
Δ RBF (anesthetized dog; intrarenal bolus 5.0 mg/kg): +132 ml/min
MAP (SE) (SHR; 2.5 mg/hr i.v. infusion, day 1): 118 ± 5 mm Hg
MAP (SE) (SHR; 2.5 mg/hr i.v. infusion, day 2): 114 ± 7 mm Hg
MAP (SE) (SHR; 2.5 mg/hr i.v. infusion, day 3): 122 ± 5 mm Hg
MAP (SE) (SHR; 2.5 mg/hr i.v. infusion, day 4): 114 ± 6 mm Hg
MAP (SE) (SHR; 2.5 mg/hr i.v. infusion, day 5): 114 ± 3 mm Hg
MAP (SE) (SHR; 2.5 mg/hr i.v. infusion, day zero): 148 ± 6 mm Hg
chronic effect on mean arterial pressure compared to vehicle (SHR): lowered mean arterial pressure similarly
